Experiments:
[1] = system: Leishmania infantum; test: Antileishmanial activity against Leishmania infantum MHOM/MA/67/ITMAP-263 infected in THP1 cells assessed as reduction in parasite growth incubated for 120 hrs by Giemsa staining based inverted microscopic analysis; type: functional, organism-based; conditions: MHOM/MA/67/ITMAP-263, THP-1, 120 h
[2] = system: Trypanosoma cruzi; test: Antitrypanosomal activity against Trypanosoma cruzi (MHOM/CH/00/Tulahuen C2, lacZ) amastigotes infected in HFF-1 cells assessed as reduction in parasite growth incubated for 120 hrs by CPRG/Igepal substrate based photometric method; type: functional, organism-based; conditions: MHOM/CH/00/Tulahuen C2, HFF-1, 120 h
[3] = Cytotoxicity against human HepG2 cells assessed as reduction in cell viability incubated for 120 hrs by MTS assay; type: cell-based
[4] = Cytotoxicity against human HFF-1 cells assessed as reduction in cell viability incubated for 120 hrs by MTS assay; type: cell-based

| Structure (SMILES) | IC50 [2] | IC50 [1] | CC50 at 120 h [3] | CC50 at 120 h [4] |
| --- | --- | --- | --- | --- |
| C=C(c1nc(-c2ccccc2)no1)C1(O)C(=O)N(CC)c2c(Cl)cc(Cl)cc21 (stereo unspecified) | > 100 µM | 4.1 µM | 6.77 µM | > 64 µM |
| C=C(c1nc(-c2ccc(OC)cc2)no1)C(O)c1ccc(C#N)cc1 (stereo unspecified) | > 100 µM | 3.89 µM | 13.6 µM | > 64 µM |
| C=C(c1nc(-c2ccccc2)no1)C1(O)C(=O)N(CC)c2c(Cl)cccc21 (stereo unspecified) | > 100 µM | 4.85 µM | 13.5 µM | 62.1 µM |
| C=C(c1nc(-c2ccc([N+](=O)[O-])cc2)no1)C1(O)C(=O)N(CC)c2ccccc21 (stereo unspecified) | – | 3.33 µM | 10.9 µM | – |
| C=C(c1nc(-c2ccc(OC)cc2)no1)C1(O)C(=O)N(CC)c2ccc([N+](=O)[O-])cc21 (stereo unspecified) | > 64 µM | 25.9 µM | 13.6 µM | > 64 µM |
| C=C(c1nc(-c2ccccc2)no1)C1(O)C(=O)N(CC)c2c(Br)cccc21 (stereo unspecified) | > 100 µM | 10.4 µM | 22.8 µM | 21.5 µM |
| C=C(c1nc(-c2ccccc2)no1)C(O)c1cccc(F)c1 (stereo unspecified) | > 100 µM | 7.29 µM | 14.1 µM | > 64 µM |
| C=C(c1nc(-c2ccc([N+](=O)[O-])cc2)no1)C(O)c1ccccc1 (stereo unspecified) | > 64 µM | 37.5 µM | 27.1 µM | > 64 µM |
| C=Cc1nc(-c2ccc([N+](=O)[O-])cc2)no1 | > 64 µM | 12.2 µM | 26.9 µM | > 64 µM |
| C=C(c1nc(-c2ccc([N+](=O)[O-])cc2)no1)C1(O)C(=O)N(CC)c2ccc(OC)cc21 (stereo unspecified) | > 64 µM | 12 µM | 5.83 µM | 43.6 µM |
| C=C(c1nc(-c2ccccc2)no1)C1(O)C(=O)N(C)c2ccccc21 (stereo unspecified) | > 64 µM | 51.4 µM | 6.73 µM | 53.8 µM |
| C=C(c1nc(-c2ccc([N+](=O)[O-])cc2)no1)C(O)c1cc(OC)c(OC)c(OC)c1 (stereo unspecified) | > 64 µM | 52.6 µM | 57.3 µM | > 64 µM |
| C=C(c1nc(-c2ccc(OC)cc2)no1)C(O)c1ccccc1[N+](=O)[O-] (stereo unspecified) | > 100 µM | 2.38 µM | 10.6 µM | 42.2 µM |
| C=C(c1nc(-c2ccccc2)no1)C1(O)C(=O)N(CC)c2ccc(OC)cc21 (stereo unspecified) | > 100 µM | 7.29 µM | 13.5 µM | > 64 µM |
| C=C(c1nc(-c2ccc(OC)cc2)no1)C1(O)C(=O)N(CC)c2ccccc21 (stereo unspecified) | > 64 µM | 2.85 µM | 26.9 µM | > 64 µM |
| C=C(c1nc(-c2ccccc2)no1)C(O)c1ccc(C#N)cc1 (stereo unspecified) | > 100 µM | 21.7 µM | 32 µM | > 64 µM |
| C=C(c1nc(-c2ccccc2)no1)C1(O)C(=O)N(CC)c2ccc(OC(F)(F)F)cc21 (stereo unspecified) | > 100 µM | 11.1 µM | 10.4 µM | > 64 µM |
| C=C(c1nc(-c2ccccc2)no1)C1(O)C(=O)N(CC)c2ccc(Cl)cc21 (stereo unspecified) | > 100 µM | 2.5 µM | 6.78 µM | > 64 µM |
| C=C(c1nc(-c2ccc(OC)cc2)no1)C1(O)C(=O)N(CC)c2ccc(OC)cc21 (stereo unspecified) | > 64 µM | 22 µM | 13.6 µM | 54.5 µM |
| COc1cccc2c1C(=O)c1c(O)c3c(c(O)c1C2=O)C[C@@](O)(C(=O)CO)C[C@@H]3O[C@H]1C[C@H](N)[C@H](O)[C@H](C)O1 [DOXORUBICIN] | – | – | 0.77 µM | 0.53 µM |
| C=C(c1nc(-c2ccc(Cl)cc2)no1)C1(O)C(=O)N(CC)c2ccc([N+](=O)[O-])cc21 (stereo unspecified) | > 64 µM | 6.48 µM | 10.4 µM | > 64 µM |
| CCCCCCCCCCCCCCCCOP(=O)([O-])OCC[N+](C)(C)C [MILTEFOSINE] | – | 2.3 µM | – | – |
| C=C(c1nc(-c2ccc(OC)cc2)no1)C(O)c1ccccc1 (stereo unspecified) | > 100 µM | 11.5 µM | 39.6 µM | 55.1 µM |

Second part, led by results:

| IC50 [2] | Structure (SMILES) | IC50 [1] | CC50 at 120 h [3] | CC50 at 120 h [4] |
| --- | --- | --- | --- | --- |
| 8.8 µM | C=C(c1nc(-c2ccc(OC)cc2)no1)C(O)c1ccccc1C(F)(F)F (stereo unspecified) | 8.55 µM | > 64 µM | > 64 µM |
| 25.7 µM | C=C(c1nc(-c2ccccc2)no1)C(O)c1ccccc1Cl (stereo unspecified) | 17.6 µM | 59.2 µM | > 64 µM |
| 16.6 µM | C=C(c1nc(-c2ccccc2)no1)C1(O)C(=O)N(CC)c2ccc(C)cc21 (stereo unspecified) | 6.01 µM | 26.7 µM | > 64 µM |
| 81.3 µM | C=C(c1nc(-c2ccccc2)no1)C(O)c1ccc(OC)cc1 (stereo unspecified) | 18 µM | 33.6 µM | > 64 µM |
| 58.4 µM | C=C(c1nc(-c2ccccc2)no1)C(O)c1ccccc1[N+](=O)[O-] (stereo unspecified) | 10.3 µM | 14 µM | > 64 µM |
| 23.6 µM | C=C(c1nc(-c2ccc(Cl)cc2)no1)C1(O)C(=O)N(CC)c2ccccc21 (stereo unspecified) | 4.01 µM | 13.8 µM | > 64 µM |
| 7.8 µM | C=C(c1nc(-c2ccccc2)no1)C(O)c1ccc([N+](=O)[O-])cc1 (stereo unspecified) | 10.4 µM | 14.2 µM | > 64 µM |
| 37.1 µM | C=C(c1nc(-c2ccc([N+](=O)[O-])cc2)no1)C(O)c1nccs1 (stereo unspecified) | > 64 µM | > 64 µM | > 64 µM |
| 16.2 µM | C=C(c1nc(-c2ccccc2)no1)C1(O)C(=O)N(c2ccccc2)c2ccccc21 (stereo unspecified) | 8.17 µM | 14.1 µM | 27.9 µM |
| 8.2 µM | C=C(c1nc(-c2ccccc2)no1)C(O)c1ccccc1 (stereo unspecified) | 9.81 µM | 27.2 µM | > 64 µM |
| 37.2 µM | C=Cc1nc(-c2ccccc2)no1 | > 64 µM | > 64 µM | > 64 µM |
| 15.6 µM | C=Cc1nc(-c2ccc(OC)cc2)no1 | 25.2 µM | 58 µM | > 64 µM |
| 55.7 µM | C=C(c1nc(-c2ccccc2)no1)C(O)/C=C/c1ccccc1 (stereo unspecified) | 20.6 µM | 30.3 µM | > 64 µM |
| 10.6 µM | C=C(c1nc(-c2ccccc2)no1)C1(O)C(=O)N(Cc2ccccc2)c2ccccc21 (stereo unspecified) | 5.65 µM | 19.2 µM | > 64 µM |
| 12.1 µM | CCN1C(=O)C2(OCC=C2c2nc(-c3ccccc3)no2)c2ccccc21 (stereo unspecified) | 11.7 µM | 60.4 µM | 20.6 µM |
| 27 µM | C=C(c1nc(-c2ccccc2)no1)C(O)c1ccc(Cl)c(F)c1 (stereo unspecified) | 18.9 µM | 27.8 µM | > 64 µM |
| 14.8 µM | C=C(c1nc(-c2ccccc2)no1)C1(O)C(=O)N(CC)c2ccc(F)cc21 (stereo unspecified) | 3.51 µM | 9.37 µM | > 64 µM |
| 26.7 µM | CCN1C(=O)C2(OCC=C2c2nc(-c3ccccc3)no2)c2cccc(Br)c21 (stereo unspecified) | 6.41 µM | 58.4 µM | 34.2 µM |
| 64.4 µM | C=C(c1nc(-c2ccccc2)no1)C(O)c1ccc(S(C)(=O)=O)cc1 (stereo unspecified) | 8.47 µM | 28.7 µM | > 64 µM |
